The test system of assay [1] is previously expanded human T cells from three healthy donors. The assay is described as follows: Effect of T cell adjuvants on T cell viability (total viable CD3+ cell count). It counts as cell-based. The note with it: for viable cell counts: vs DMSO treatment control, irrespective of activation status, 6 days. The protocol:
Cells were expanded from PBMC derived from Ficoll gradient separation from three healthy donor's apheresis material. […] Because the studies were carried out in healthy donors, stimulation of the T cells was carried out with anti-CD3 (OKT3) stimulation in order to mimic conditions present in the tumor microenvironment (TME).
Cells were next seeded into gas permeable 100M culture vessels and expanded for 7-14 days to achieve a large bank of T cells, and cryopreserved. […] Half of wells were additionally supplemented with 50 ng/mL OKT3, a human anti-CD3 monoclonal antibody. In total, 15 test adjuvant agents were tested for their impact on cell viability in the presence and absence of anti-CD3 activation (see Table E3). Cells were cultured for 6 days total, including a 50% medium exchange on culture day 3, and monitored for total viable CD3+ cell count.

Assay [2] relates to PBMC from three healthy donors. Briefly: T cell expansion with Fas ligand or caspase inhibition, anti-CD3 stimulation. The note with it: OKT3 activation. It counts as cell-based, human. As for the experimental part: Cells were then seeded into a 24-well gas permeable cell culture plate at a density of 2.14×10^5 cells/mL (7.5×10^5 cells/cm^2). Cells were activated for 48 hours using 50 ng/ml OKT3, a human anti-CD3 monoclonal antibody, and were additionally treated with agents as described below.
Culture wells were assigned to one of five treatment groups, as follows: (1) a no inhibitor culture control which contained only cellular media as described with no additional apoptotic modulator; (2) 2 μM of the pan-caspase inhibitor Z-VAD-FMK added to the media only on culture day 0 (transient); (3) 2 μM of the pan-caspase inhibitor Z-VAD-FMK added on culture day 0 and additionally replenished at the same concentration with each media exchange (continuous); (4). 500 ng/ml of Fas ligand (FasL) blocking antibody NOK-1 (BioLegend) added to the culture media only on day 0 (transient); or (5) 500 ng/ml of Fas ligand (FasL) blocking antibody NOK-1 (BioLegend) added to the culture media […] replenished each media exchange (continuous inhibition).
Cultures were maintained for at least 13 days with a 50% media exchange every other day beginning on culture day 2. Cell counts and viability were monitored every other day. […]

The subject of assay [3] is PBMC from two healthy donors. The assay is described as follows: T cell expansion with Fas ligand or caspase inhibition, anti-CD3/anti-CD28 stimulation. The class given is cell-based, human. As to conditions: continuous anti-CD3/anti-CD28 activation. As for the experimental part:
Cells were then seeded into a 24-well gas permeable cell culture plate at a density of 1.5×10^5 cells/mL (5.0×10^5 cells/cm^2).
Culture wells were assigned to one of two treatment groups, transient or continuous activation. For transient activation, anti-CD3/anti-CD28 paramagnetic beads (Dyanbeads™) were added to the culture media at a ratio of 1 bead per cell starting on culture day 0, and then were removed during media exchange on day 2. For continuous activation, anti-CD3/anti-CD28 paramagnetic beads (Dyanbeads™) were added to the culture media at a ratio of 1 bead per cell starting on culture day 0, and then added again on Day 4, and again on Day 6 at a ratio of 1 bead per cell. The anti-CD3/anti-CD28 paramagnetic beads were not removed on Day 2, 4 or 6.
For both the continuous and transient activation, culture wells were assigned to one of five treatment groups as described above for 10 conditions total per donor.
Cell counts and viability were monitored every other day. When cells reached 3×10^6 cells/ml, 1.5×10^6 cells were sub-cultured into a new well of a 24-well gas permeable culture plate with 7 mL final volume of medium and the culture continued as described above.

The subject of assay [4] is CRC tumor fragment and SCS cultures. The assay is described as follows: Caspase inhibition in tumor processing. It counts as cell-based, human. The protocol:
Half of cultures contained media additionally supplemented with 2 μM of pan-caspase inhibitor Z-VAD-FMK which was replenished at each media exchange. Cultures were incubated at about 37° C. for a minimum of 18 days with a 50% medium exchange occurring every 2-3 days following culture day 5. Cell counts were performed on day 5 and at each medium exchange using the NC-200 Automated Cell Counter (ChemoMetec).

The subject of assay [5] is previously expanded human T cells from three healthy donors. Briefly: Cytokines, modulators and agonist antibodies with IL-2 on T cell number and memory phenotype. The class given is cell-based. As for the experimental part:
PBMC from three healthy donors were activated, expanded, and cryopreserved as described in Example 11. […] As previously described, stimulation of the healthy donor T cells prior to cryopreservation were carried out with anti-CD3 (OKT3) stimulation in order to mimic conditions present in the tumor microenvironment (TME).
Cells were next seeded into gas permeable 100M culture vessels and expanded for 7-14 days to achieve a large bank of T cells, and cryopreserved.
Cells were maintained in culture for 6 days, with a 50% medium exchange occurring at 3 days post culture initiation.
At the end of the culture period for all culture conditions, cells were assessed for cell count and sub-phenotypes of naïve and central memory T cells by flow cytometry by staining with CD45RA and CCR7 (naïve, CD45RA+ CCR7+; “central” memory, CD45RA-CCR7+).

Assay [6] concerns cells processed from melanoma tumor fragments. The assay is described as follows: Anti-CD3 stimulation on expansion of tumor-derived cells. It counts as cell-based, human. The note with it: presence or absence of 50 ng/mL OKT3; 14-31 days. The protocol: Cells processed from melanoma tumor fragments as described in Examples 1 and 2, were cultured in the presence or absence of 50 ng/mL OKT3, a human anti-CD3 monoclonal antibody. Cell cultures were carried out to between 14 and 31 days, such as between 14 and 21 days, in either a conventional 6-well plate or a gas permeable culture plate with RPMI or OpTmizer media. […] About 50% of cellular media was exchanged every other day beginning on the 5th day of culture as described previously. Cells were then counted using the NC-200 Automated Cell Counter (Chemometec).

Assay [7] relates to T-cells from three healthy donors. Briefly: Post-stimulation CD4+ and CD8+ activation markers by flow cytometry. The note with it: 50 ng/ml OKT3 vs no OKT3, 48 hours, CD38, CD39, CD134, CD137, CD69, CD90. It counts as cell-based, human. As for the experimental part: Specific markers of activation on the CD4+ and CD8+ cell populations were measured using flow cytometry over a time course of 3-48 hours. Specifically, the following markers were assessed: CD38 and CD39 (FIG. 12A and FIG. 13A), CD134 and CD137 (FIG. 12B and FIG. 13B), and CD69 and CD90 (FIG. 12C and FIG. 13C).
(In general: In flow cytometry, cells or beads pass a laser one at a time.)

For assay [8], the system named is PBMC from two healthy donors. The assay is described as follows: Checkpoint modulators and costimulatory agonist antibodies on T cell phenotype. The class given is cell-based, human. As for the experimental part:
Cells were then seeded into a 24-well gas permeable cell culture plate at a density of 5.0×10^5 cells/cm^2. Cells were activated for 48 hours using 50 ng/ml OKT3, a human anti-CD3 monoclonal antibody, and were additionally treated with agents as described below. Following 48 hours in culture, cells were analyzed for phenotype.
Cells were divided into 6 treatment groups, as follows: Ipilimumab (anti-CTLA4), Pembrolizumab (anti-PD1), Tavolixizumab (anti-TNFRSF4), Urelumab (anti-CD137), and Varlilumab (anti-CD27), as well as a no added agent control. For all test groups, cells in each treatment group were cultured in the presence of the monoclonal antibodies at 0.5, 1, 10, or 20 μg/mL.
None of the tested antibodies appeared to affect the memory differentiation state of the T cells. T cell phenotype was assessed for CD4+ and CD8+ cells independently via flow cytometry for markers of activation OX40, 41BB, CD107a, and PD1. Results are shown in FIG. 38 (CD3+), FIG. 39 (CD4+) and FIG. 40 (CD8+).

Where [9] appears, read: cytokine plus 300 IU/mL IL-2 vs IL-2 alone.
The mark [10] stands for this setting: on CD3+, CD4+ and CD8+ T cells, higher concentrations.

Entries after “also recorded” stand apart in the source; their conditions may differ. Residues, ends and D or L forms follow the SMILES beside them. *: point of attachment. Cbz = O=C(OCc1ccccc1)*; CH2F = FC*

The values that follow come from US20260240999A1, “METHODS FOR EX VIVO ENRICHMENT AND EXPANSION OF TUMOR REACTIVE T CELLS AND RELATED COMPOSITIONS THEREOF” (H. LEE MOFFITT CANCER CENTER AND RESEARCH INSTITUTE, INC., priority 2022, published 2026).

For the compound `COC(=O)C[C@H](NC(=O)[C@H](C)NC(=O)[C@@H](NC(=O)OCc1ccccc1)C(C)C)C(=O)CF` [Z-VAD-FMK, carbobenzoxy-valyl-alanyl-aspartyl-[O-methyl]-fluoromethylketone] (Cbz-Val-Ala-Asp(OMe)-CH2F), the viable cell counts result in assay [1] was “consistently higher viable cell counts than the DMSO treatment control”. For the same compound, the figures for the “cell growth (total cell number)” value in assay [2] (continuous inhibition (replenished each media exchange)) and in assay [2] (transient treatment (day 0 only)) were “showed the greatest cell growth across donors” and “grew similarly”, respectively. The “total viable cell number and viability” value in assay [3] (inhibitor continuous, listed as caspase inhibitor) was “outperformed the other conditions; also recorded: outperforming the transient condition”; in assay [3] (inhibitor transient), “outperformed the other conditions”. The cell viability result in assay [4] (SCS culture, 2 μM) is on record as “Cell viability was similarly high”; in assay [4] (tumor fragment-derived culture, 2 μM) it was “cell viability for this condition was also high”. Moreover, the “outgrowth of T cells” value in assay [4] (SCS culture, 2 μM) is given as “outgrowth of T cells was not observed for the SCS conditions”. Besides, in assay [4] (tumor fragment-derived culture, 2 μM replenished at each media exchange), the “outgrowth of cells (fold expansion, total viable cells)” value was “outgrowth of cells was superior in the tumor fragment-derived condition containing the pan-caspase inhibitor”. In addition, the “number of CD3+ cells/mL on Day 6” value in assay [5] (concentrations higher than 0.2 μg/mL, vs IL-2 alone) was “substantially increased the number of CD3+ cells/mL on Day 6”. In assay [5] (vs cultures expanded just with IL-2), the “percent of naïve and central memory T cells” value was “had no effect on the percent of naïve and central memory T cells”.

Regarding IL-15: recombinant cytokine, the “dose response of cell number” value in assay [1] (62.5 IU/ml-1000 IU/ml) is given as “dose dependent response, wherein cell number increased with increasing concentration”. Also, in assay [5] (cytokine plus 300 IU/mL IL-2), the “percent naïve and central memory T cells at Day 6” value was “measured increase in the percent naïve and central memory T cells”. In assay [5] (setting [9]), the “CD3+ cells/mL on Day 6” value is reported as “increase in CD3+ cells/mL on Day 6”.

Turning to IL-21: recombinant cytokine, in assay [5] (cytokine plus 300 IU/mL IL-2), the “percent naïve and central memory T cells at Day 6” value is “measured increase in the percent naïve and central memory T cells”. The “CD3+ cells/mL on Day 6” value in assay [5] (setting [9]) is “increase in CD3+ cells/mL on Day 6”.

For “OKT3: a human anti-CD3 monoclonal antibody”, the “total cell number and fold expansion” value in assay [6] is given as “supported T cell expansion, but did not substantially impact total cell number; also recorded: observed to be largely similar”. For the same compound, the “upregulation of activation markers on CD8+ T cells” value in assay [7] (highest for CD38, CD134, CD69) is recorded as “all assessed markers were upregulated to some extent”. In assay [7] (highest for CD38, CD137, CD69), the “upregulation of activation markers on CD4+ T cells” value is given as “all assessed markers were upregulated to some extent”.

In the case of Oxelumab: anti-OX40L antibody, in assay [1], the viable cell counts entry is reported as “consistently higher viable cell counts than the DMSO treatment control”. For the same compound, the “percent naïve and central memory T cells at Day 6” value in assay [5] (antibody plus IL-2 vs IL-2 alone, MK-1248 at highest concentration tested) was “little effect on the percent of naïve and central memory T cells”. The “CD3+ cells/mL on Day 6” value in assay [5] (highest concentration tested, 50 μg/mL, vs IL-2 alone) is “increase in CD3+ cells/mL on Day 6”.

On to Pembrolizumab: anti-PD1 antibody, for which the viable cell counts entry in assay [1] is “consistently higher viable cell counts than the DMSO treatment control”. The PD1 expression result in assay [8] (on CD4 T cells) is given as “decreased PD1 expression”.

On to “Urelumab: an agonist CD137 receptor antibody”, for which the 41BB expression entry in assay [8] (on CD4 T cells and CD8+ T cells) is given as “promoted 41BB expression”.

As to “Varlilumab: an agonist anti-CD27 antibody”, in assay [8] (setting [10]), the 41BB expression entry is “promoted 41BB and CD107a expression”; the CD107a expression result was “promoted 41BB and CD107a expression”.
